In data set [1] the test system is murine splenocytes and COLO 205 cells. Description: Cytotoxicity at high lipopeptide concentrations. The class given is cell-based.
Another data set concerns COLO 205 human cell line. Description: Induction of HLA-DR on COLO 205 cells by lipopeptide fragments (FIG. 12B). The following applies: COLO 205, 24 hours, different concentrations. The class given is cell-based. The procedure: (§1) Fresh splenocytes are obtained from 7-week-old female 129 Sv mice. The COLO 205 human colon carcinoma lines are obtained from the ATCC (American Type Culture Collection). The splenocytes and COLO 205 cells are maintained in RPMI 1640 (Gibco BRL, Courbevoie, France), supplemented with 10% FCS (Gibco BRL), sodium pyruvate (Sigma, St. Louis, USA) and incubated at 37° C. in 5% CO2.
(§2) The cells were stimulated for 24 hours with different concentrations of MuL, L-mIFNγ 113-132, L-mIFNγ 122-132 or MuSL. The murine splenocytes and COLO 205 cells were labelled for the expression of II MHC with 1 μg of anti-mouse IA^b FITC monoclonal antibody (mAb) (Pharmingen, San Diego, USA) and 10 μl of anti-HLA-DR clone TAL.1B5 mouse FITC mAb (Cymbus Biotechnology Ltd, Hants, UK), respectively. A negative control mouse FITC IgG1 (DAKO S. A., Trappes, France) was used as control isotype. The cells were incubated for 1 hour at 4° C. in PBS, 10% FCS and then washed, and the expression of II MHC was analysed by flow cytometry using a Coulter EPILS II cytometer (Coulter, Hialeah, Fla., USA) at a rate of 10,000 events per sample.
(§3) FIG. 12: Induction of class II CMH molecules by human or murine cells stimulated with lipopeptides derived from IFN-γ. The murine splenocytes (A) and the COLO 205 human cell line (B) were incubated for 24 hours with different concentrations of lipopeptides derived from IFN-γ. The cells were labelled with a monoclonal antibody directed against the class II CMH molecules, and analysed by flow cytometry. The ratio between the average fluorescence intensity of the cells treated with the lipopeptides and between the average fluorescence intensity of the untreated cells is indicated on the y-axis. The lipopeptide concentration is indicated in μM on the x-axis; MuL: solid circles; MuSL : hollow circles; L-mIFN 113-132: triangles; L-mIFN 122-132: X.

The nature of data set [2]: Circular dichroism studies. The class given is physicochemical. The following applies: 2 mM pH 7 phosphate buffer. The protocol: The circular dichroism measurements on the peptides were carried out at 25° C. using a Jobin-Yvon CD-6 machine at controlled temperature. The scans were carried out with a cell 0.1 cm in length in an average time of 5 sec. The wavelength interval measured ranges from 185 to 260 nm at a scanning step speed of 0.5 nm/step. The scans were carried out on the peptides at neutral pH in a 2 mM phosphate buffer with or without the helix-stabilizing reagent trifluoroethanol (TFE). The peptide concentration was adjusted to a concentration of 20 μM, after determination of the exact amount of a 100 μM solution by quantitative amino acid analysis. The average values of 4 repeat scans were expressed as average molar ellipticity per residue (deg. cm^2 dmol.).
For orientation: CD spectra are sensitive to the conformation of chiral molecules.

The next data set has as its system murine splenocytes. Description: Induction of class II CMH molecules (IA^b) on murine splenocytes by lipopeptide fragments (FIG. 12A). The class given is cell-based, 129 Sv mice. The settings on record: murine splenocytes, 24 hours, different concentrations. The procedure:
as §1, §2, §3

The next data set concerns splenocytes. Description: Expression of class II CMH molecules and Fc-γ receptors on splenocytes taken from an animal. The class given is cell-based, Balb/c mouse. The following applies: 50 μM, 24 hours, flow cytometry. The protocol:
(§4) Principle: to evaluate the activity of the vectorized agonist on cells taken from an animal and treated in vitro (in order to assess the value of a subsequent in vivo study).
(§5) Procedure. The splenocytes and peritoneal cells taken from an animal (Balb/c mouse) are re-cultured at a rate of 2.5×10^6 splenocytes and […] peritoneal cells per well in 24-well plates (NUNC) stimulated with 50 μM of the different peptides in a final volume of 1 ml. After stimulation for 24 hours, the cells are labelled with the anti IA^d monoclonal antibody described in the preceding paragraph, according to the same protocol. To detect the Fc-γ R, the cells are labelled with 1 μg of a rat anti Fc-γ R monoclonal antibody (Pharmingen, San Diego, USA). Next, the cells are incubated for ½ hour with a rat anti IgG biotinylated polyclonal antibody. The revelation is then carried out with FITC streptavidin used at a dilution of 1:100 (Sigma, St. Louis, USA). The expression of Fc-γ R is determined by flow cytometry.
In general terms: A flow cytometer gives signals particle by particle.

The test system of a further data set is WEHI3. The data set is described as follows: Induction of class II CMH molecules on WEHI3 cell line, flow cytometry. The class given is cell-based, murine. The following applies: 50 μM, stimulated for 24 hours. The protocol:
(§6) Principle: to check the induction of class II CMH molecules on cell lines (P388D1 and WEHI3: murine myelomonocytes) with the above-mentioned peptides.
(§7) Procedure. The cells are cultured the day before at a rate of 3×10^5 cells per well in 24-well culture plates (NUNC). The following day, the cells are stimulated with the various lipopeptide and peptide constructs at a final concentration of 50 μM in 1 ml of medium. After incubation for 24 hours at 37° C. in an atmosphere saturated with 5% CO2, the cells are recovered and incubated for 1 hour at 4° C. with 3 μg of a biotinylated mouse anti-I-Ad monoclonal antibody (Pharmingen, San Diego, USA). After revelation for 30 minutes with FITC streptavidin used at a dilution of 1:100 (Sigma, St. Louis, USA), the expression of class II molecules is determined by flow cytometry.

The subject of data set [3] is human colon carcinoma cells (COLO 205). Description: Induction of HLA-DR on COLO 205 cell line, flow cytometry. The class given is cell-based. The following applies: COLO 205, 50 μM. The procedure: Principle: human colon carcinoma cells (COLO 205) are analysed for their ability to express HLA-DR after having been stimulated with the various peptide constructs.
Procedure. The cell line COLO 205 is cultured at a rate of 3×10^5 cells per well in a 24-well culture plate (NUNC). The following day, the cells are stimulated with the various peptide constructs at a final concentration of 50 μM in 1 ml of medium, and are incubated at 37° C. for 24 hours. The cells are then recovered and labelled using 3 μg of an anti HLA-DR mouse biotinylated monoclonal antibody (clone L243). After revelation with FITC streptavidin, the cells are analysed by flow cytometry.

For data set [4], the system named is cells taken from mice 129 no longer expressing the alpha chain of the IFN-γ receptor (KO mice). Description: Involvement of the IFN-γ receptor: IA^d and Fc-γ R on cells of mice lacking the alpha chain of the IFN-γ receptor. The class given is cell-based. The following applies: stimulation for 24 hours, flow cytometry. The procedure: as §5
(§8) Principle. to confirm that the biological activity observed was effectively associated with a stimulation of the IFN-γ receptor, we repeated the same experiments, in parallel on splenocytes taken from mice 129 (Wild type: WT) and on cells taken from mice 129 no longer expressing the alpha chain of the IFN-γ receptor (KO mice).
(§9) Procedure. The experimental protocol followed is identical to that described in paragraph 2 above.

Data set [5] has as its system splenocytes taken from mice 129 (Wild type: WT). The data set is described as follows: Involvement of the IFN-γ receptor: IA^d and Fc-γ R on splenocytes of wild type mice 129. The class given is cell-based. The settings on record: stimulation for 24 hours, flow cytometry. The procedure: as §5, §8, §9
For the next data set, the system named is peritoneal cells. The data set is described as follows: Expression of class II CMH molecules and Fc-γ receptors on peritoneal cells taken from an animal. The class given is cell-based, Balb/c mouse. The following applies: 50 μM, 24 hours, flow cytometry. The procedure:
as §4, §5

Another data set relates to P388D1. Description: Induction of class II CMH molecules on P388D1 cell line, flow cytometry. The class given is cell-based, murine. The settings on record: for percentage of class II CMH detected by flow cytometry, P388D1: 50 μM, stimulated for 24 hours. The protocol: as §6, §7

Where a SMILES comes first, the peptide text is derived from it. The star is where a group is joined. Palmitoyl = CCCCCCCCCCCCCCCC(=O)*

`CCCCCCCCCCCCCCCC(=O)NCCCC[C@H](NC(C)=O)C(=O)N[C@@H](C)C(=O)N[C@@H](CCCCN)C(=O)N[C@@H](Cc1ccccc1)C(=O)N[C@@H](CCC(=O)O)C(=O)N[C@H](C(=O)N[C@@H](CC(N)=O)C(=O)N[C@@H](CC(N)=O)C(=O)N1CCC[C@H]1C(=O)N[C@@H](CCC(N)=O)C(=O)N[C@H](C(=O)N[C@@H](CCC(N)=O)C(=O)N[C@@H](CCCNC(=N)N)C(=O)N[C@@H](CCC(N)=O)C(=O)N[C@@H](C)C(=O)N[C@@H](Cc1ccccc1)C(=O)N[C@@H](CC(N)=O)C(=O)N[C@@H](CCC(=O)O)C(=O)N[C@@H](CC(C)C)C(=O)N[C@H](C(=O)N[C@@H](CCCNC(=N)N)C(=O)N[C@H](C(=O)N[C@H](C(=O)N[C@@H](Cc1c[nH]cn1)C(=O)N[C@@H](CCC(N)=O)C(=O)N[C@@H](CC(C)C)C(=O)N[C@@H](CC(C)C)C(=O)N1CCC[C@H]1C(=O)N[C@@H](CCC(=O)O)C(=O)N[C@@H](CO)C(=O)N[C@@H](CO)C(=O)N[C@@H](CC(C)C)C(=O)N[C@@H](CCCNC(=N)N)C(=O)N[C@@H](CCCCN)C(=O)N[C@@H](CCCNC(=N)N)C(=O)N[C@@H](CCCCN)C(=O)N[C@@H](CCCNC(=N)N)C(=O)N[C@@H](CO)C(=O)N[C@@H](CCCNC(=N)N)C(N)=O)C(C)C)C(C)C)[C@@H](C)CC)C(C)C)C(C)C` [MuL] (Ac-K(Palmitoyl)AKFEVNNPQVQRQAFNELIRVVHQLLPESSLRKRKRSR-NH2): the cytotoxicity entry in [1] is given as “cytotoxic”.

Turning to “L-mIFN-γ 122-132: fragment 122-132 of murine IFNγ, carboxamide end, N-terminal Ac-K(Pam) group (Ac-K(Palmitoyl)ESSLRKRKRSR-NH2; SMILES CCCCCCCCCCCCCCCC(=O)NCCCC[C@H](NC(C)=O)C(=O)N[C@@H](CCC(=O)O)C(=O)N[C@@H](CO)C(=O)N[C@@H](CO)C(=O)N[C@@H](CC(C)C)C(=O)N[C@@H](CCCNC(=N)N)C(=O)N[C@@H](CCCCN)C(=O)N[C@@H](CCCNC(=N)N)C(=O)N[C@@H](CCCCN)C(=O)N[C@@H](CCCNC(=N)N)C(=O)N[C@@H](CO)C(=O)N[C@@H](CCCNC(=N)N)C(N)=O)”, the “increase in class II CMH molecules (FIG. 12B)” value in the data set on COLO 205 human cell line is on record as “neither L-mIFN-γ 122-132 nor MuSL are active”. Moreover, the “helical (ordered) conformation by CD” value in [2] (25% trifluoroethanol) is 50-60%. For the same molecule, the “increase in class II CMH molecules (FIG. 12A)” value in the data set on murine splenocytes is recorded as “neither L-mIFN-γ 122-132 nor MuSL are active”.

Turning to “Mu: non-lipid peptide: sequence delimited by the amino acids in positions 95 and 132 of the murine IFN-γ peptide sequence (AKFEVNNPQVQRQAFNELIRVVHQLLPESSLRKRKRSR; listed as Mus sp.)”, in the data set with COLO 205 human cell line, the “increase in class II CMH molecules (FIG. 12B)” value is “inactive”. For the same molecule, the “helical (ordered) conformation by CD” value in data set [2] (25% trifluoroethanol) worked out at 53%. Also, the “helical (ordered) conformation by CD” value in data set [2] (50% trifluoroethanol) came to 65%. Moreover, in the data set on murine splenocytes, the “increase in class II CMH molecules (FIG. 12A)” value was “inactive”. Also, in the data set with splenocytes, the “splenocytes II CMH (%)” value was 12% and the “splenocytes RFc (%)” value amounted to 7%. The “percentage of class II CMH detected by flow cytometry, WEH1” value in the data set on WEHI3 turned out to be 8%. In addition, in data set [3], the “induction of the expression of HLA-DR” value is on record as “no activity”. Moreover, the “% HLA-DR” value in [3] (24 hours, flow cytometry) was 1.2%. For the same molecule, in data set [4], the “KO mice II CMR (%)” value was determined as 3% and the “KO mice RFc (%)” value was 1%. Further, in [5], the “WT mice II CMH (%)” value is 12% and the “WT mice RFc (%)” value worked out at 1%. Moreover, in the data set with peritoneal cells, the “peritoneal cells II CMH (%)” value was found to be 13% and the “peritoneal cells RFc (%)” value is on record as 8%. Besides, in the data set on P388D1, the “percentage of class II CMH detected by flow cytometry, P388D1” value came to 5%.

In the case of “MuS: non-lipid scrambled analogue of the Mu peptide (PSRENQNAVKIQKLSVVLRREQKHRVERLAFRNQSLPF)”, in the data set with splenocytes, the “splenocytes II CMH (%)” value is listed as 9% and the “splenocytes RFc (%)” value is on record as 8%. Besides, in the data set with WEHI3, the “percentage of class II CMH detected by flow cytometry, WEH1” value is 5%. In data set [4], the “KO mice II CMR (%)” value came out at 3% and the “KO mice RFc (%)” value amounted to 1%. Further, in [5], the “WT mice II CMH (%)” value is reported as 3% and the “WT mice RFc (%)” value amounted to 1%. In addition, in the data set on peritoneal cells, the “peritoneal cells II CMH (%)” value is 6% and the “peritoneal cells RFc (%)” value came out at 8%. Moreover, the “percentage of class II CMH detected by flow cytometry, P388D1” value in the data set on P388D1 is listed as 14%.

Consider “recombinant IFN-γ: recombinant interferon-gamma cytokine used as reference”, for which the “stimulation time at which induction of class II CMH molecules is at a maximum” value with P388D1 (cell lines of Table 8) was found to be 48 h.
